Laboratory results taken from article PMC12029992, “Beyond-Rule-of-Five Compounds Are Not Different: In Vitro–In Vivo Extrapolation of Female CD-1 Mouse Clearance Based on Merck Healthcare KGaA Compound Set” (Pharmaceuticals, 2025).

Legend:
[1] = Determination of CLint in mouse microsomes (microsomal stability); format: in vitro ADME; details: female CD-1 mouse microsomes
Protocol: Microsomal stability was assessed on a liquid handling platform (Tecan Freedom EVO-2 200 MCA384, Männedorf, Switzerland) using pooled female CD-1 mouse microsomes. Compounds (1 µM final) were pre-incubated with microsomes (final 0.5 mg/mL) for 5 min at 37 °C in phosphate buffer (50 mM, pH 7.4), which was followed by the start of the incubation by the addition of cofactor NADPH (final 1.5 mM). […] Incubations were carried out in singlicate. Aliquots were taken at time points of 0, 5, 10, 20, and 30 min. Additionally, two control samples (0 and 30 min) lacking the addition of NADPH were included in order to flag compounds with non-microsomal metabolism. After incubation, the samples were quenched by adding sample aliquots from four different compound incubations to a two-fold volume of acetonitrile (ACN) for bioanalytical cocktailing designed to avoid analytical interference. After centrifugation, the supernatants were analyzed by a standard reversed-phase liquid chromatography assay coupled to tandem mass spectrometry (UHPLC-MS/MS) (for details, see the Supplementary Materials).
The data were subjected to post-acquisition analysis by the Analyst software (version 1.7.2), and the percentage of compound remaining (defined as the ratio of the peak area at a given time point and that at the 0 min time point) was plotted against the incubation time. The first-order elimination rate constant (kel) was derived by non-linear regression using Biorails version 5.10.22/Morphit version 8.0 (The Edge Software Consultancy, Guildford, UK), and CLint values (expressed in µL/min/mg) were obtained by normalizing kel with the microsome concentration.

[2] = Unbound fraction in the hepatocyte incubation (fu,hep) by rapid equilibrium dialysis; format: in vitro ADME, mouse; details: for fu,hep: experimental unbound fraction in hepatocyte incubation
Protocol: (§1) The free fraction in mouse plasma, in the microsome incubation, and in the hepatocyte incubation was determined using rapid equilibrium dialysis (RED) in Teflon-coated 96-well RED devices. Test compounds were added as DMSO stocks to the donor matrix at 0.5 µM (final DMSO concentration of 0.5%) and dialyzed against phosphate buffer (70 mM, pH 7.4) in the receiver compartment for 4 h at 37 °C.
(§2) The donor matrices differed for the various unbound fractions. […] Mouse serum was dialyzed overnight to exchange the carbonate with a phosphate buffer and was then used as a donor matrix in the experiment (50% serum in 70 mM phosphate buffer, pH 7.4). For fu,mic, human liver microsomes were used as a surrogate for mouse microsomes as a donor matrix in the experiment (0.8 mg protein/mL in 70 mM phosphate buffer, pH 7.4). For fu,hep, mouse hepatocytes were inactivated by incubating overnight at room temperature and then used as a donor matrix in the experiment (0.2 million cells/mL in 70 mM phosphate buffer, pH 7.4).
(§3) Samples were taken from both compartments after 4 h of incubation and analyzed via UHPLC-MS/MS. The unbound fraction, fu, was calculated as follows: fu=creceiver/cdonor
(§4) The fu values were interconverted from one matrix concentration to another using the following formula: fu2=fu1/M2/M1−fu1·M2/M1−1 where fu2 at matrix concentration M2 can be calculated from the fu1 value at matrix concentration M1.
(§5) The recovery was calculated to check the mass balance after the experiment by adding the total compound levels in both the donor and receiver compartments.

Kinetic solubility = format: physicochemical
Protocol: The kinetic solubility (KSOL) determination is carried out in a 96-well plate filtration format where the sample (2 μL of sample stock solution 10mM DMSO) is combined to 98 μL of 20 mM buffer phosphate pH 7.4. The filtration plate is then incubated and agitated at 250 rpm for 120 minutes. After stirring, the plate is centrifuged at 2500 rpm for 3 minutes, allowing all solvent to be collected in the lower microplate. Next to avoid pre-cipitation, 50 μL of the filtered solution is diluted with 50 μL of 2% DMSO in pH 7.4 buffer solution to yield a 100 μM sample solution ready for H(U)PLC analytics.
For the standard, each compound is prepared by combining 2 μL of the sample stock solution 10mM DMSO to 198 μL Acetonitrile/Methanol/Eluant A ([…]).
For the evaluation, wavelength with maximum sensitivity is to be selected. The kinetic solubility is determined according to following formulas, whereas S is the targeted value […]
L = area௦௔௠௣௟௘ × concentration௦௧௔௡ௗ௔௥ௗ × dilution factor௦௔௠௣௟௘area௦௧௔௡ௗ௔௥ௗ × dilution factor௦௧௔௡ௗ௔௥ௗ with: L= Concentration of solved compound in buffer [μg/ml] and S= Molar concentra-tion of solved compound in buffer [mol/L]
Chromatographic conditions: Column Waters XBridge Column C8 3.5μm (Waters Cat No 186003053); Column temperature 37°C; Autosampler Room temperature (approx.
25°C); Injection volume 10 μL (HPLC) / 3μL (UPLC); Wavelength 220 nm, 254 nm, 290 nm. Eluant A: 1 mL Formic Acid + 999 mL Ultrapure Water; Eluant B: 1 mL Formic Acid […]
Table S5. Gradient for UHPLC analysis
Time Eluent A (%) Eluent B (%) Flow (ml/min)
Reagents and Materials: Phosphate Buffer 20mM pH 7.4: EMS, Art No. 11601-40; DMSO Merck Art. No. 102950; Acetonitrile Merck, Art. No. 100030, Methanol Merck Art. No.
106007; Formic Acid Merck Art.No.100264; Acetonitrile Merck Art. No.10030; Filtration Plate Millipore MultiScreen HTS HV 0.45uM; 96 Well Millipore Art. No. MSHVN4510; Column Waters XBridge Column C8 3.5μm (Waters Cat. No. 186003053); HPLC vials VWR Cat. No. 5480028; Micro-Inserts VWR Cat. No. 548-0006; Screw caps VWR Cat. No. […]

[3] = Unbound fraction in the microsome incubation (fu,mic) by rapid equilibrium dialysis; format: in vitro ADME, human; details: for fu,mic: experimental unbound fraction in microsome incubation
Protocol: as §1, §2, §3, §4, §5

[4] = recovery in equilibrium dialysis

SMILES	Microsome CLint [1] [µL/min/mg]	fu,hep [2] [%]	fu,hep recovery ([2]; recovery in fu,hep dialysis) [%]	Kinetic solubility PBS pH 7.4 (Kinetic solubility) [µM]	fu,mic [3] [%]	fu,mic recovery ([3]; recovery in fu,mic dialysis) [%]	fu,hep recovery [2, 4] [%]	fu,mic recovery [3, 4] [%]
O=C(O)c1cc(-c2ccc(F)cc2F)ccc1O [MSC001]	17.8	97.45	232	> 200	91.70	98		
CNC(=O)c1cc(Oc2ccc3nc(N[C@@H]4CCCC[C@H]4O)sc3c2)ccn1 [MSC003]	20.5	100.00	80	156.7	87.21	98		
COc1cccc(OCCCN)c1-c1cc(Nc2cnc(C#N)cn2)n[nH]1 [MSC020]	165.3	91.30	50	165.4	58.66	61		
N#Cc1c[nH]c2c(C(=O)N3CCN(CCc4ccc(F)cc4)CC3)cccc12 [MSC213]	212.8	87.81		105.1	35.01		136	87
